From ChEMBL document CHEMBL1133597, “Fluorosulfonyl-substituted xanthines as selective irreversible antagonists for the A(1)-adenosine receptor” (J Med Chem, 2000)
pIC50, pKd: −log10 of the molar value.

Key:
Adenosine receptor A2a [1] = molecular target: T1, Adenosine receptor A2a (Rattus norvegicus, UniProt P30543)
Description: Inhibition of [3H]ZM-241385 binding to adenosine A2A receptor(AR).

Adenosine receptor A1 = molecular target: T2, Adenosine receptor A1 (Homo sapiens, UniProt P30542); test: Inhibition of [3H]-DPCPX binding to adenosine A1 receptor (AR).; set-up: species or system Cricetulus griseus
T2 sequence (P30542 whole entry): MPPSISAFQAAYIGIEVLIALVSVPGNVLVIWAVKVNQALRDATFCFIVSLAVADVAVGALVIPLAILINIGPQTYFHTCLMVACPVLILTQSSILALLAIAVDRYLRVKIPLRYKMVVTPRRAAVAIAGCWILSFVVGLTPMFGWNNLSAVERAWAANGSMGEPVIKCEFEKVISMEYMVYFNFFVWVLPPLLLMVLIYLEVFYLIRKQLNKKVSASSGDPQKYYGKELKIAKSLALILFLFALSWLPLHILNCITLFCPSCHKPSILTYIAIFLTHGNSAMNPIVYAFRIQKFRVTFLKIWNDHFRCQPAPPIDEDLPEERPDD

[2] = molecular target: T3, Adenosine receptor A1 (Homo sapiens) (UniProt P30542); test: Percent loss of [3H]-DPCPX binding to adenosine A1 receptor at 100 nM; conditions: Cricetulus griseus
T3 sequence (whole entry): T2 sequence (P30542 whole entry)

[3] = molecular target: T3, Adenosine receptor A1 (Homo sapiens); test: Percent loss of [3H]DPCPX binding to adenosine A1 receptor at 0.05 nM; conditions: Cricetulus griseus
[4] = molecular target: T3, Adenosine receptor A1 (Homo sapiens); test: Percent loss of [3H]DPCPX binding to adenosine A1 receptor at 5 nM; conditions: Cricetulus griseus
[5] = molecular target: T3, Adenosine receptor A1 (Homo sapiens); test: Percent loss of [3H]DPCPX binding to adenosine A1 receptor at 0.1 nM; conditions: Cricetulus griseus
Adenosine receptor A2a [6] = molecular target: T1, Adenosine receptor A2a; remark: listed apart in the source
Description: Dissociation constant of [3H]ZM-241385 binding to adenosine A2A receptor(AR)

[7] = molecular target: T3, Adenosine receptor A1 (Homo sapiens); test: Percent loss of [3H]-DPCPX binding to adenosine A1 receptor at 200 nM; conditions: Cricetulus griseus

T1 sequence (P30543 whole entry): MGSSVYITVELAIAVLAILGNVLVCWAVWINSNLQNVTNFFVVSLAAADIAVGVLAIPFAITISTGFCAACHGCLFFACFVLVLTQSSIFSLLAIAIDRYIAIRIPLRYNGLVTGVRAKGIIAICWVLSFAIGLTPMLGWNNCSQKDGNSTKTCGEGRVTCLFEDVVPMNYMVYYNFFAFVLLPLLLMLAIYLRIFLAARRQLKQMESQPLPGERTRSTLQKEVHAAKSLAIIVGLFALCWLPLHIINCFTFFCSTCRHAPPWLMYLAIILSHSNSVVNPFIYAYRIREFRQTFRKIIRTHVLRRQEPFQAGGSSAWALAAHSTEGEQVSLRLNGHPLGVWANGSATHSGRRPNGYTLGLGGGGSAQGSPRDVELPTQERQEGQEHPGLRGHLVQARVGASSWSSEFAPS

## CCCn1c(=O)c2[nH]c(C3CCCCC3)nc2n(CCCc2ccc(S(=O)(=O)F)cc2)c1=O
Adenosine receptor A2a [1]
  pIC50: < 8.00
Adenosine receptor A1
  pIC50: 6.95

## CCCn1c(=O)c2nc(C3CCCCC3)[nH]c2n(CCCNC(=O)c2ccc(S(=O)(=O)F)cc2)c1=O
[2]
  Loss: 82%
[3]
  Loss: 16%
[4]
  Loss: 64%
Adenosine receptor A1
  pIC50: 7.60
[5]
  Loss: 43%

## CCCn1c(=O)c2[nH]c(C3CCCC3)nc2n(CCCOC(=O)c2ccc(S(=O)(=O)F)cc2)c1=O
Adenosine receptor A2a [6]
  pKd: 9.64
Adenosine receptor A2a [1]
  pIC50: 8.92

## CCCn1c(=O)c2nc(C3CCCC3)[nH]c2n(CCCOC(=O)c2ccc(S(=O)(=O)F)cc2)c1=O
[4]
  Loss: 67%

## CCCn1c(=O)c2nc(C3CCCCC3)[nH]c2n(CCCc2ccc(S(=O)(=O)F)cc2)c1=O
[7]
  Loss: 11%

## CCCn1c(=O)c2nc(C3CCCC3)[nH]c2n(CCCNC(=O)c2ccc(S(=O)(=O)F)cc2)c1=O
Adenosine receptor A2a [6]
  pKd: 9.47
[2]
  Loss: 83%
[3]
  Loss: 33%
Adenosine receptor A2a [1]
  pIC50: 8.55
[4]
  Loss: 74%
[5]
  Loss: 64%

## CCCn1c(=O)c2nc(C3CCCCC3)[nH]c2n(CCCCCc2ccc(S(=O)(=O)F)cc2)c1=O
Adenosine receptor A2a [1]
  pIC50: < 8.00
[7]
  Loss: 43%
Adenosine receptor A1
  pIC50: 7.00

## CCCn1c(=O)c2nc(C3CCCCC3)[nH]c2n(Cc2ccc(S(=O)(=O)F)cc2)c1=O
[7]
  Loss: 0%

## CCCn1c(=O)c2[nH]c(C3CCCCC3)nc2n(Cc2ccc(S(=O)(=O)F)cc2)c1=O
Adenosine receptor A2a [1]
  pIC50: < 8.00
Adenosine receptor A1
  pIC50: 6.78
